Measurements published in patent US20040106682A1, “Novel benzylideneamino guanidines and their uses as ligands to the melnocortin receptors” (priority 2001, published 2004).
Where a name gives a salt, the structure may show the parent alone.

Legend:
MC1 receptor = target: T1, MC1 receptor (Mus musculus, UniProt Q01727); experiment: Affinity for the MC1-receptor, 125I-NDP-αMSH binding assay; conditions: B16 mouse melanoma cells endogenously expressing mouse MC1, displacement of 125I-NDP-MSH, nb = non-binding, i.e. no affinity; for Ki: read-out: Affinity for MC-receptors, Ki, MC1
T1 construct: B16 mouse melanoma cells were used, which endogenously express the (mouse) MC1 receptor; endogenous in cells; host or cells: B16 mouse melanoma cells
T1 sequence (Q01727 whole entry): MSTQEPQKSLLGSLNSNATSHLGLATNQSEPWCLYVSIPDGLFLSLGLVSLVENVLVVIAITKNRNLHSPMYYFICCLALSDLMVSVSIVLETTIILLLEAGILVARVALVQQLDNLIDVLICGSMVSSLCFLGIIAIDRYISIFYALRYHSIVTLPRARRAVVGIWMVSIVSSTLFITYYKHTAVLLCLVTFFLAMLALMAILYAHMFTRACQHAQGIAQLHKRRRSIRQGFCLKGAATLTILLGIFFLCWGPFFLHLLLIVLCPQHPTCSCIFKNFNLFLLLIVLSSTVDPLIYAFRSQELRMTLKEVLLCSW
Protocol: Test 1. Affinity for the MC1-receptor
The binding assay was carried out essentially as described by Lunec et al., Melanoma Res. 1992; 2; 5-12 using I^125-NDP-αMSH as ligand.
(§1) Essentially, the affinity of the compounds for the different melanocortin receptors were determined by using either insect cells (Sf9) or COS cells, which were transfected with recombinant human MC3, MC4 or MC5 receptors. For the determination of the affinity for the MC1 receptor, B16 mouse melanoma cells were used, which endogenously express the (mouse) MC1 receptor.
(§2) The compounds were tested at different concentrations for their ability to displace a ^125I-labelled NDP-MSH from the respective receptor. Incubation was performed in 96-well plates, using 50,000 cells/well (Sf9 or COS cells) up to 200,000 cells/well (mouse melanoma cells).
(§3) The test compound or standard (NDP-MSH) was added in an appropriate concentration (generally between 10^−4 M and 10^−12 M) together with labelled tracer (approx. 50,000 cpm/well) and incubated for 2 hours (at room temperature for Sf9 cells and at +37° C. for COS cells and mouse melanoma cells).
(§4) After the incubation, the cells were washed twice to get rid of the excess tracer and compound, and the cells were lysed with 0.1 M NaOH. The lysate was counted in a gamma-counter, binding was calculated and the affinity determined.

[1] = target: T2, recombinant human MC3 receptor (Homo sapiens, UniProt P41968); experiment: Affinity for the MC3-receptors, 125I-NDP-αMSH binding assay; conditions: Sf9 or COS cells transfected with recombinant human MC3, displacement of 125I-NDP-MSH, nb = non-binding, i.e. no affinity; for Ki: read-out: Affinity for MC-receptors, Ki, MC3
T2 construct: expressed in transfected cells; host or cells: Sf9 insect cells or COS cells
T2 sequence (P41968 whole entry): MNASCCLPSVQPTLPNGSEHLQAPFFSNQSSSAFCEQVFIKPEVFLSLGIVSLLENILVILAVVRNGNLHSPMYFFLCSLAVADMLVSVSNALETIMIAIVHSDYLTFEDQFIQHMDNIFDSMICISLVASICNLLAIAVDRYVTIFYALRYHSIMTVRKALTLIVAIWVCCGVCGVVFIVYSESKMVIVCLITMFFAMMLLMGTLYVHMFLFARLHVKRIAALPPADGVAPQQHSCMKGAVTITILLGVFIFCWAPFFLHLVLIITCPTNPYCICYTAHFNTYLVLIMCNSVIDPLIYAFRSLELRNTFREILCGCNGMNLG
Protocol: (§5) Test 2. Affinity for the MC3-receptors, the MC4receptors and the MC5-receptors
(§6) The binding assays were carried out essentially as described by Szardenings et al., J. Biol. Chem. 1997; 272; 27943-27948 and Schiöth et al., FEBS Lett. 1997; 410; 223-228 using I^125-NDP-αMSH as ligand.
as §1, §2, §3, §4

[2] = target: T3, recombinant human MC4 receptor (Homo sapiens, UniProt P32245); experiment: Affinity for the MC4-receptors, 125I-NDP-αMSH binding assay; conditions: Sf9 or COS cells transfected with recombinant human MC4, displacement of 125I-NDP-MSH, nb = non-binding, i.e. no affinity; for Ki: read-out: Affinity for MC-receptors, Ki, MC4
T3 construct: expressed in transfected cells; host or cells: Sf9 insect cells or COS cells
T3 sequence (P32245 whole entry): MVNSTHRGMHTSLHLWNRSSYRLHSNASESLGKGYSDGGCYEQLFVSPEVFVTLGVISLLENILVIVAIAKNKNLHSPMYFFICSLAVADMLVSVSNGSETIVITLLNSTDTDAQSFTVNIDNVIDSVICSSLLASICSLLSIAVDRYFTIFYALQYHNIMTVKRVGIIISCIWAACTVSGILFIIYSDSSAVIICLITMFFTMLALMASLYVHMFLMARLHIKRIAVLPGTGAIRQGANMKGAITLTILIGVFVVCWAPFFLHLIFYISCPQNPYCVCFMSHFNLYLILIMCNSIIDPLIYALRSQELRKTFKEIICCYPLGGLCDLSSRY
Protocol: as §5, §6, §1, §2, §3, §4

[3] = target: T4, recombinant human MC5 receptor (Homo sapiens, UniProt P33032); experiment: Affinity for the MC5-receptors, 125I-NDP-αMSH binding assay; conditions: Sf9 or COS cells transfected with recombinant human MC5, displacement of 125I-NDP-MSH, nb = non-binding, i.e. no affinity; for Ki: read-out: Affinity for MC-receptors, Ki, MC5
T4 construct: expressed in transfected cells; host or cells: Sf9 insect cells or COS cells
T4 sequence (P33032 whole entry): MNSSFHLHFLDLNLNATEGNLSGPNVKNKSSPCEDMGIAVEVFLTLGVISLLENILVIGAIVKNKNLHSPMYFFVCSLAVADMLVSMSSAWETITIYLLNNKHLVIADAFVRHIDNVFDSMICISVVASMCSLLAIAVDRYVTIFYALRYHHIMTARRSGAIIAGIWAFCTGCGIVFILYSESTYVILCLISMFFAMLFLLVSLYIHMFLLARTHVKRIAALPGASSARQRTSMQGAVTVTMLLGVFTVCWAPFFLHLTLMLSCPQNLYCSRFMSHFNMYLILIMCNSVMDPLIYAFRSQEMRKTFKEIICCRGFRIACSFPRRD
Protocol: as §5, §6, §1, §2, §3, §4

melanocortin receptors = experiment: Affinity/activity on melanocortin receptors (general statements); type: binding; conditions: statement in words, receptor subtype not specified

SMILES: N=C(N)NN=Cc1ccc([N+](=O)[O-])c(Cl)c1Cl (as salt: HCl) [1:4, N-(2,3-Dichloro-4-Nitrobenzylideneamino)guanidine]
- melting point: 258 to 262 °C

SMILES: CCOc1cc(C=NNC(=N)N)c([N+](=O)[O-])c(C(F)(F)F)c1 (as salt: HCl) [1:5, N-(5-Ethoxy-2-Nitro-3-Trifluoromethylbenzylideneamino)guanidine]
- melting point: 92 to 98 °C

SMILES: N=C(N)NN=Cc1c(Br)cccc1Br (as salt: HCl) [1:6, N-(2,6-Dibromobenzylideneamino)guanidine]
- melting point: 178 to 183 °C

SMILES: N=C(N)NN=Cc1ccc(I)cc1Br (as salt: HCl) [1:9, N-(2-Bromo-4-Iodobenzylideneamino)guanidine]
- melting point: 236 to 239 °C

SMILES: N=C(N)NN=Cc1cccc(Cl)c1I (as salt: salt) [1:1, N-(3-Chloro-2-Iodobenzylideneamino)guanidine]
- melting point: 231 to 232.5 °C

SMILES: N=C(N)NN=Cc1cc(F)ccc1F (as salt: salt) [1:10, N-(2,5-Difluorobenzylideneamino)guanidine]
- melting point: 211 to 212 °C

SMILES: COc1cccc(OC)c1C=NNC(=N)N (as salt: salt) [1:11, N-(2,6-Dimethoxybenzylideneamino)guanidine]
- melting point: 158 to 160 °C

SMILES: N=C(N)NN=Cc1cccc(O)c1O (as salt: salt) [1:12, N-(2,3-Dihydroxybenzylideneamino)guanidine]
- melting point: 223 to 224.5 °C

SMILES: N=C(N)NN=Cc1ccc(Br)cc1I (as salt: salt) [1:13, N-(4-Bromo-2-iodobenzylideneamino)guanidine]
- melting point: 202 to 207 °C

SMILES: N=C(N)NN=Cc1cccc(Cl)c1I [1:1, N-(3-Chloro-2-Iodobenzylideneamino)guanidine]
- Ki (MC1 receptor): 0.5 µM
- Ki [1]: 5.8 µM
- Ki [2]: 0.01 µM
- Ki [3]: 4.9 µM

SMILES: N=C(N)NN=Cc1ccc([N+](=O)[O-])c(Cl)c1Cl [1:4, N-(2,3-Dichloro-4-Nitrobenzylideneamino)guanidine]
- Ki (MC1 receptor): 3.6 µM
- Ki [1]: 10.1 µM
- Ki [2]: 12.2 µM
- Ki [3]: 10.7 µM

SMILES: N=C(N)NN=Cc1c(Br)cccc1Br [1:6, N-(2,6-Dibromobenzylideneamino)guanidine]
- Ki (MC1 receptor): 0.8 µM
- Ki [1]: 22.7 µM
- Ki [2]: 0.1 µM
- Ki [3]: 29.6 µM

SMILES: N=C(N)N/N=C/c1c(Cl)cccc1Cl [Guanobenz, Guanabenz, reference compound]
- affinity to the melanocortin receptors (melanocortin receptors): no affinity
- Affinity for MC-receptors, Ki, MC1 (MC1 receptor): nb
- Affinity for MC-receptors, Ki, MC3 [1]: nb
- Affinity for MC-receptors, Ki, MC4 [2]: nb
- Affinity for MC-receptors, Ki, MC5 [3]: nb
